Data published in ChEMBL document CHEMBL5108056, “Discovery of Isoform-Selective Akt3 Degraders Overcoming Osimertinib-Induced Resistance in Non-Small Cell Lung Cancer Cells” (J Med Chem, 2022).

Key:
[1] = target: T1, RAC-gamma serine/threonine-protein kinase (Homo sapiens, UniProt Q9Y243); assay: Induction of AKT3 degradation in human NCI-H1975 cells assessed as reduction in AKT3 protein level incubated for 24 hrs under serum free medium by Western blot analysis; type: cell-based
[2] = target: T2, RAC-alpha serine/threonine-protein kinase (Homo sapiens, UniProt P31749); assay: Induction of AKT1 degradation in human NCI-H1975 cells assessed as reduction in AKT1 protein level incubated for 24 hrs under serum free medium by Western blot analysis; type: cell-based
T2 sequence (P31749 whole entry): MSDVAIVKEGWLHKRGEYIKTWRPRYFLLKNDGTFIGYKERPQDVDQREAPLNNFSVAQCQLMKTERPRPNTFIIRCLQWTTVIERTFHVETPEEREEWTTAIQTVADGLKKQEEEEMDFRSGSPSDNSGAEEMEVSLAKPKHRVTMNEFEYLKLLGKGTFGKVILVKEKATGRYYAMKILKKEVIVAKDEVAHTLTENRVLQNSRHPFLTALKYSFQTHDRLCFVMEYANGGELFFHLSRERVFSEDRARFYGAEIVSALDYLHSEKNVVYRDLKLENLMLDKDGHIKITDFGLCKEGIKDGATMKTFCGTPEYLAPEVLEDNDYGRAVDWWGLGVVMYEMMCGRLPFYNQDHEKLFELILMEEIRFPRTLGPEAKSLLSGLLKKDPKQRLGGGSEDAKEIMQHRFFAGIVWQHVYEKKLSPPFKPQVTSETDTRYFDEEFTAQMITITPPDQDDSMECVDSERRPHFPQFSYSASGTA

[3] = target: T1, RAC-gamma serine/threonine-protein kinase; assay: Induction of AKT3 degradation in human NCI-H1975 cells assessed as reduction in AKT3 protein level at 1000 nM incubated for 24 hrs under serum free medium by Western blot analysis relative to control; type: cell-based
[4] = target: T3, RAC-beta serine/threonine-protein kinase (Homo sapiens, UniProt P31751); assay: Induction of AKT2 degradation in human NCI-H1975 cells assessed as reduction in AKT2 protein level incubated for 24 hrs under serum free medium by Western blot analysis; type: cell-based
T3 sequence (P31751 whole entry): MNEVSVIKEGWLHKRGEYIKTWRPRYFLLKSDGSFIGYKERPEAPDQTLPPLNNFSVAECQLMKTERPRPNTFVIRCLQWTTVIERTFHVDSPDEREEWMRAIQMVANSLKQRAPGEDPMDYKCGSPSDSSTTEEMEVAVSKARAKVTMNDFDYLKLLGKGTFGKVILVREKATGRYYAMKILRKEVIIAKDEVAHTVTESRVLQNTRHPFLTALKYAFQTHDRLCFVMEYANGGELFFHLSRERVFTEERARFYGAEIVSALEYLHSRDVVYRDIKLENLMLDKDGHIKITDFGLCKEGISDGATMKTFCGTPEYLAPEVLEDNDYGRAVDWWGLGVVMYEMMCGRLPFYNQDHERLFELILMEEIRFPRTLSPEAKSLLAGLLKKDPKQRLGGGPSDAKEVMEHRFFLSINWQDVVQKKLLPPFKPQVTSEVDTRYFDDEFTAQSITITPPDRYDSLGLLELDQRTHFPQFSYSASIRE

NCI-H1975 [5] = assay: Antiproliferative activity against human osimertinib resistant NCI-H1975 cells assessed as reduction in cell viability measured after 24 hrs by CCK-8 assay; type: functional, cell-based; details: NCI-H1975, 24 h
[6] = target: Epidermal growth factor receptor (Homo sapiens, UniProt P00533); assay: Inhibition of EGFR in human NCI-H1975 cells; type: cell-based
Sequence of Epidermal growth factor receptor (P00533 whole entry): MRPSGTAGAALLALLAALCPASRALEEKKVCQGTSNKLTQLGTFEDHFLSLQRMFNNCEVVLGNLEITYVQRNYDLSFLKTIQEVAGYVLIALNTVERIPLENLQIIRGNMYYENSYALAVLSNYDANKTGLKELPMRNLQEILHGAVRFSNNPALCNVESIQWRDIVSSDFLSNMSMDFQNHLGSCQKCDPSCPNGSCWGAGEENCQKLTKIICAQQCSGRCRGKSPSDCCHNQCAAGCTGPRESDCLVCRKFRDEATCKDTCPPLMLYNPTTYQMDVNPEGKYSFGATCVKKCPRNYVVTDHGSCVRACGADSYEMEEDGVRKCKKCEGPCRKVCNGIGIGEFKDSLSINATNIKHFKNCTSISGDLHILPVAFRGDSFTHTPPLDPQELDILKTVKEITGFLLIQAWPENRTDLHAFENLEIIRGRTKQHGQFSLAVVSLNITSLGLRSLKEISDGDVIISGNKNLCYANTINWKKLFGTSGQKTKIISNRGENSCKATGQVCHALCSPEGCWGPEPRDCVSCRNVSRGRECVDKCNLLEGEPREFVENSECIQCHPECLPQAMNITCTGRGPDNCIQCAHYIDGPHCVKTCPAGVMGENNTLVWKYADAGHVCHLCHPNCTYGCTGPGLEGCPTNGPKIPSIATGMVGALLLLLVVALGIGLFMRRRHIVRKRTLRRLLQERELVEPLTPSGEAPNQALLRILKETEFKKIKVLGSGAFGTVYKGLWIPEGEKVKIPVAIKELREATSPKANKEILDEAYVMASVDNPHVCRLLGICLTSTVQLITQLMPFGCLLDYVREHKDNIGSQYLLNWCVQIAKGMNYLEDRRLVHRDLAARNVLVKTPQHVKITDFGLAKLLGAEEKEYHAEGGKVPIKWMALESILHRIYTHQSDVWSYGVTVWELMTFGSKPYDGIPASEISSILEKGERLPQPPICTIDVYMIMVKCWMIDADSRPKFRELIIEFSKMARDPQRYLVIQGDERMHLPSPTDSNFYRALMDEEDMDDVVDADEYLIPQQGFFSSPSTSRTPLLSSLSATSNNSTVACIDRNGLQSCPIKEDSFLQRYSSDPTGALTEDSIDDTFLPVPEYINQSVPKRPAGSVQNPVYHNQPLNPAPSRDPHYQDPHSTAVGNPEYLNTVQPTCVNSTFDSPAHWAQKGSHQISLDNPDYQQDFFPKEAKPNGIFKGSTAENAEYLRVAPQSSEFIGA

NCI-H1975 [7] = assay: Antiproliferative activity against human NCI-H1975 cells assessed as reduction in cell viability incubated for 72 hrs by CCK-8 assay; details: NCI-H1975, 72 h
NCI-H1975 [8] = assay: Antiproliferative activity against human NCI-H1975 cells harbouring wild type Akt3 assessed as reduction in cell viability incubated for 72 hrs by CCK-8 assay; details: NCI-H1975, 72 h
NCI-H1975 [9] = assay: Antiproliferative activity against human NCI-H1975 cells harbouring Akt3 T305A/S472A mutant assessed as reduction in cell viability incubated for 72 hrs by CCK-8 assay; type: functional, cell-based; details: NCI-H1975, 72 h
[10] = target: T3, RAC-beta serine/threonine-protein kinase; assay: Induction of AKT2 degradation in human NCI-H1975 cells assessed as reduction in AKT2 protein level at 1000 nM incubated for 24 hrs under serum free medium by Western blot analysis relative to control; type: cell-based
[11] = target: T2, RAC-alpha serine/threonine-protein kinase; assay: Induction of AKT1 degradation in human NCI-H1975 cells assessed as reduction in AKT1 protein level at 1000 nM incubated for 24 hrs under serum free medium by Western blot analysis relative to control; type: cell-based

T1 sequence (Q9Y243 whole entry): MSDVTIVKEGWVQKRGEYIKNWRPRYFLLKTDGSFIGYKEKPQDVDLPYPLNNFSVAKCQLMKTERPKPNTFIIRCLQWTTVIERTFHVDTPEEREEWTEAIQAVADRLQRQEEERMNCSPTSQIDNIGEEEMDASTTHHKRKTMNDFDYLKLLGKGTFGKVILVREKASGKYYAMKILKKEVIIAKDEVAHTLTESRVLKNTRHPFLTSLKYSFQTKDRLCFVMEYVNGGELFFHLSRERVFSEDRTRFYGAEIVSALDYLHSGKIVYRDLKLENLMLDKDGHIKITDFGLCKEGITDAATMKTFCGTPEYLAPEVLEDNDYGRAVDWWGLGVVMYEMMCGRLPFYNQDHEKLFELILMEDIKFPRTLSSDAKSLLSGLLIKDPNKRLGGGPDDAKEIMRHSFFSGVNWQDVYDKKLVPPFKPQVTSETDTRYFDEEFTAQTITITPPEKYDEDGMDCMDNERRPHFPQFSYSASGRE

SMILES | EC50 [1] | EC50 [2] | Emax [3] | EC50 [4] | IC50 (NCI-H1975 [5]) | EC50 [6] | IC50 (NCI-H1975 [7]) | IC50 (NCI-H1975 [8]) | IC50 (NCI-H1975 [9]) | Emax [10] | Emax [11]
COc1cc(N2CCN(CCCCCCCCCCCCNC(=O)CC34CC5CC(CC(C5)C3)C4)CC2)ccc1Nc1ncc2c(C)cc(=O)n(-c3cccc(N)c3)c2n1 | 0.102 µM | > 1 µM | 77% | > 1 µM | – | – | – | – | – | – | –
COc1cc(N2CCN(CCCCCCCCCCCCNC(=O)CC34CC5CC(CC(C5)C3)C4)CC2)ccc1Nc1ncc2c(C)cc(=O)n(-c3ccc(NC(=O)C4CC4)cc3)c2n1 | > 1 µM | > 1 µM | – | > 1 µM | > 10 µM | – | – | – | – | – | –
C=CC(=O)Nc1cccc(-n2c(=O)cc(C)c3cnc(Nc4ccc(N5CCN(CCCCCCCCCCCCCCNC(=O)CC67CC8CC(CC(C8)C6)C7)CC5)cc4OC)nc32)c1 | 0.12 µM | > 1 µM | 75% | > 1 µM | – | – | – | – | – | – | –
C=CC(=O)Nc1cccc(-n2c(=O)cc(C)c3cnc(Nc4ccc(N5CCN(CCCCCCCCCCNC(=O)CC67CC8CC(CC(C8)C6)C7)CC5)cc4OC)nc32)c1 | 0.402 µM | > 1 µM | 51% | > 1 µM | – | – | – | – | – | – | –
C=CC(=O)Nc1cccc(-n2c(=O)cc(C)c3cnc(Nc4ccc(N5CCN(CCCCCCNC(=O)CC67CC8CC(CC(C8)C6)C7)CC5)cc4OC)nc32)c1 | 1 µM | > 1 µM | – | > 1 µM | – | – | – | – | – | – | –
C=CC(=O)Nc1cccc(-n2c(=O)cc(C)c3cnc(Nc4ccc(N5CCN(C)CC5)cc4OC)nc32)c1 | > 1 µM | > 1 µM | – | > 1 µM | – | – | – | – | – | – | –
COc1cc(N2CCN(CCCCCCCCCCCCNC(=O)CC34CC5CC(CC(C5)C3)C4)CC2)ccc1Nc1ncc2c(C)cc(=O)n(-c3cccc(NC(=O)C(C)C)c3)c2n1 | 0.033 µM | > 1 µM | 71% | > 1 µM | – | 0.143 µM | – | – | – | – | –
CCC(=O)Nc1cccc(-n2c(=O)cc(C)c3cnc(Nc4ccc(N5CCN(CCCCCCCCCCCCNC(=O)CC67CC8CC(CC(C8)C6)C7)CC5)cc4OC)nc32)c1 | 0.034 µM | > 1 µM | 74% | > 1 µM | – | – | – | – | – | – | –
C=CC(=O)Nc1cccc(-n2c(=O)cc(C)c3cnc(Nc4ccc(N5CCN(CCCCCCCCNC(=O)CC67CC8CC(CC(C8)C6)C7)CC5)cc4OC)nc32)c1 | 0.052 µM | 0.168 µM | 75% | 0.082 µM | – | – | – | – | – | 69% | 55%
